# Experimental data as given in PubChem BioAssay AID252 (DTP/NCI, 2004).
# Several values for one entry are separate records, joined by “and”; a condition that tells them apart may be missing. Equal entries are not always repeated. Inconclusive results and toxic doses are left out.
# System: BDF1 mice, intracerebral L1210 leukemia, survival T/C
# Assay: NCI In Vivo Anticancer Drug Screen. Data for tumor model L1210 Leukemia (intracerebral) in B6D2F1 (BDF1) mice
# Conditions: higher = longer survival
# Outline: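 Survival measured in treated and vehicle-control tumour-bearing mice; value = T/C.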
# [1] = endpoint: mean survival time, dose: 50.0 mg/kg/injection, schedule: Q01DX Z (ip), vehicle: carboxymethylcellulose (CMC)
# [2] = endpoint: mean survival time, dose: 100.0 mg/kg/injection, schedule: Q01DX Z (ip), vehicle: carboxymethylcellulose (CMC)
# [3] = endpoint: mean survival time, dose: 200.0 mg/kg/injection, schedule: Q01DX Z (ip), vehicle: carboxymethylcellulose (CMC)
# [4] = endpoint: mean survival time, dose: 440.0 mg/kg/injection, schedule: Q01DX001 (ip), vehicle: carboxymethylcellulose (CMC)
# [5] = endpoint: mean survival time, dose: 670.0 mg/kg/injection, schedule: Q01DX001 (ip), vehicle: carboxymethylcellulose (CMC)
compound,measurement,setting,value
O=NN(CCF)C(=O)Nc1c[nH]c(=O)[nH]c1=O,T/C,"endpoint: mean survival time, dose: 9.0 mg/kg/injection, schedule: Q01DX001 (ip), vehicle: carboxymethylcellulose (CMC)",103 % of control
same,T/C,"endpoint: mean survival time, dose: 13.0 mg/kg/injection, schedule: Q01DX001 (ip), vehicle: carboxymethylcellulose (CMC)",105 % of control
same,T/C,"endpoint: mean survival time, dose: 20.0 mg/kg/injection, schedule: Q01DX001 (ip), vehicle: carboxymethylcellulose (CMC)",110 % of control
O=C(Nc1ccc(C2=NCCN2)cc1)c1ccc(C(=O)Nc2ccc(C3=NCCN3)cc2)cc1,T/C,[1],107 % of control
same,T/C,[2],110 % of control
same,T/C,[3],121 % of control
same,T/C,"endpoint: mean survival time, dose: 250.0 mg/kg/injection, schedule: Q01DX Z (ip), vehicle: carboxymethylcellulose (CMC)",116 % of control
same,T/C,"endpoint: mean survival time, dose: 375.0 mg/kg/injection, schedule: Q01DX Z (ip), vehicle: carboxymethylcellulose (CMC)",97 % of control
Cc1nc(N)nc(N)c1-c1ccc(Cl)c(Cl)c1,T/C,"endpoint: mean survival time, dose: 1.08 mg/kg/injection, schedule: Q01DX009 (ip), vehicle: saline",105 % of control
same,T/C,"endpoint: mean survival time, dose: 1.8 mg/kg/injection, schedule: Q01DX009 (ip), vehicle: saline",95 % of control
same,T/C,"endpoint: mean survival time, dose: 3.0 mg/kg/injection, schedule: Q01DX009 (ip), vehicle: saline",98 % of control
same,T/C,"endpoint: mean survival time, dose: 5.0 mg/kg/injection, schedule: Q01DX009 (ip), vehicle: saline",97 % of control
same,T/C,"endpoint: mean survival time, dose: 8.4 mg/kg/injection, schedule: Q01DX009 (ip), vehicle: saline",111 % of control
same,T/C,"endpoint: mean survival time, dose: 8.4 mg/kg/injection, schedule: Q04DX003 (ip), vehicle: saline",104 % of control
same,T/C,"endpoint: mean survival time, dose: 14.0 mg/kg/injection, schedule: Q04DX003 (ip), vehicle: saline",96 % of control
same,T/C,"endpoint: mean survival time, dose: 23.0 mg/kg/injection, schedule: Q04DX003 (ip), vehicle: saline",103 % of control
same,T/C,"endpoint: mean survival time, dose: 39.0 mg/kg/injection, schedule: Q04DX003 (ip), vehicle: saline",93 % of control
same,T/C,"endpoint: mean survival time, dose: 65.0 mg/kg/injection, schedule: Q04DX003 (ip), vehicle: saline",103 % of control
same,T/C,"endpoint: median survival time, dose: 0.62 mg/kg/injection, schedule: Q01DX009 (ip), vehicle: saline",106 % of control
same,T/C,"endpoint: median survival time, dose: 1.25 mg/kg/injection, schedule: Q01DX009 (ip), vehicle: saline",115 % of control
same,T/C,"endpoint: median survival time, dose: 5.0 mg/kg/injection, schedule: Q01DX009 (ip), vehicle: saline",117 % of control
same,T/C,"endpoint: median survival time, dose: 10.0 mg/kg/injection, schedule: Q01DX009 (ip), vehicle: saline",104 % of control
CSCS(=O)C[C@H](CO)NC(=O)/C=C/c1c(C)[nH]c(=O)[nH]c1=O (stereo not given in full),T/C,"endpoint: mean survival time, dose: 1.1 mg/kg/injection, schedule: Q01DX001 (ip), vehicle: carboxymethylcellulose (CMC)",95 % of control
same,T/C,"endpoint: mean survival time, dose: 1.7 mg/kg/injection, schedule: Q01DX001 (ip), vehicle: carboxymethylcellulose (CMC)",101 % of control
same,T/C,"endpoint: mean survival time, dose: 2.6 mg/kg/injection, schedule: Q01DX001 (ip), vehicle: carboxymethylcellulose (CMC)",98 % of control
O=NN(CCCl)C(=O)Nc1ccc(SCC(=O)O)cc1,T/C,"endpoint: mean survival time, dose: 12.0 mg/kg/injection, schedule: Q01DX001 (ip), vehicle: carboxymethylcellulose (CMC)",95 % of control
same,T/C,"endpoint: mean survival time, dose: 18.0 mg/kg/injection, schedule: Q01DX001 (ip), vehicle: carboxymethylcellulose (CMC)",96 % of control
same,T/C,"endpoint: mean survival time, dose: 26.0 mg/kg/injection, schedule: Q01DX001 (ip), vehicle: carboxymethylcellulose (CMC)",88 % of control
O=NN(CCCl)C(=O)NC1CCCCCCCCCCC1,T/C,"endpoint: mean survival time, dose: 298.0 mg/kg/injection, schedule: Q01DX001 (ip), vehicle: other",103 % of control
same,T/C,"endpoint: mean survival time, dose: 550.0 mg/kg/injection, schedule: Q01DX001 (ip), vehicle: other",124 % of control
same,T/C,"endpoint: mean survival time, dose: 596.0 mg/kg/injection, schedule: Q01DX001 (ip), vehicle: other",108 % of control
same,T/C,"endpoint: mean survival time, dose: 1250.0 mg/kg/injection, schedule: Q01DX001 (ip), vehicle: other",159 % of control and 160 % of control
same,T/C,"endpoint: mean survival time, dose: 1875.0 mg/kg/injection, schedule: Q01DX001 (ip), vehicle: other",123 % of control
same,T/C,"endpoint: mean survival time, dose: 2384.0 mg/kg/injection, schedule: Q01DX001 (ip), vehicle: other",110 % of control
O=C(Nc1ccc(C2=NCCN2)cc1)c1cccc(C(=O)Nc2ccc(C3=NCCN3)cc2)c1,T/C,"endpoint: mean survival time, dose: 31.0 mg/kg/injection, schedule: Q01DX Z (ip), vehicle: water",89 % of control
O=NN(CCCl)C(=O)Nc1ccc(Oc2ccc(NC(=O)N(CCCl)N=O)cc2)cc1,T/C,[4],116 % of control
same,T/C,[5],119 % of control
same,T/C,"endpoint: mean survival time, dose: 1500.0 mg/kg/injection, schedule: Q01DX001 (ip), vehicle: carboxymethylcellulose (CMC)",122 % of control
CC(C)(C)C1CCCC(NC(=O)N(CCCl)N=O)C1 (stereo not given),T/C,"endpoint: mean survival time, dose: 187.0 mg/kg/injection, schedule: Q01DX001 (ip), vehicle: saline with Tween-80",169 % of control
O=C1NC2(CCCCC2)C(=O)N1CCN(CCCl)CCCl,T/C,"endpoint: mean survival time, dose: 0.78 mg/kg/injection, schedule: Q01DX009 (ip), vehicle: saline",101 % of control
same,T/C,"endpoint: mean survival time, dose: 1.56 mg/kg/injection, schedule: Q01DX009 (ip), vehicle: saline",89 % of control
same,T/C,"endpoint: mean survival time, dose: 3.12 mg/kg/injection, schedule: Q01DX009 (ip), vehicle: saline",95 % of control
same,T/C,"endpoint: mean survival time, dose: 6.25 mg/kg/injection, schedule: Q01DX009 (ip), vehicle: saline",102 % of control
same,T/C,"endpoint: mean survival time, dose: 12.5 mg/kg/injection, schedule: Q01DX009 (ip), vehicle: saline",91 % of control
O=C1C(NC(=O)C2CCCCC2)=C(N2CC2)C(=O)C(NC(=O)C2CCCCC2)=C1N1CC1,T/C,"endpoint: mean survival time, dose: 25.0 mg/kg/injection, schedule: Q01DX009 (ip), vehicle: Klucel (hydroxypropylcellulose) (HPC)",111 % of control
same,T/C,"endpoint: mean survival time, dose: 50.0 mg/kg/injection, schedule: Q01DX009 (ip), vehicle: Klucel (hydroxypropylcellulose) (HPC)",101 % of control and 102 % of control and 241 % of control
same,T/C,[1],104 % of control
same,T/C,[2],103 % of control
same,T/C,"endpoint: mean survival time, dose: 200.0 mg/kg/injection, schedule: Q01DX009 (ip), vehicle: Klucel (hydroxypropylcellulose) (HPC)",105 % of control and 115 % of control and 119 % of control
same,T/C,[3],103 % of control
same,T/C,"endpoint: mean survival time, dose: 400.0 mg/kg/injection, schedule: Q01DX009 (ip), vehicle: Klucel (hydroxypropylcellulose) (HPC)",119 % of control and 97 % of control
same,T/C,"endpoint: mean survival time, dose: 400.0 mg/kg/injection, schedule: Q01DX Z (ip), vehicle: carboxymethylcellulose (CMC)",116 % of control
same,T/C,[4],96 % of control and 98 % of control
same,T/C,[5],104 % of control and 97 % of control
same,T/C,"endpoint: mean survival time, dose: 800.0 mg/kg/injection, schedule: Q01DX009 (ip), vehicle: Klucel (hydroxypropylcellulose) (HPC)",104 % of control
same,T/C,"endpoint: mean survival time, dose: 1000.0 mg/kg/injection, schedule: Q01DX001 (ip), vehicle: carboxymethylcellulose (CMC)",102 % of control and 103 % of control
CC(=O)OC1CCC(NC(=O)N(CCCl)N=O)CC1 (stereo not given),T/C,"endpoint: mean survival time, dose: 24.0 mg/kg/injection, schedule: Q01DX001 (ip), vehicle: other",364 % of control
same,T/C,"endpoint: mean survival time, dose: 36.0 mg/kg/injection, schedule: Q01DX001 (ip), vehicle: other",500 % of control
same,T/C,"endpoint: mean survival time, dose: 54.0 mg/kg/injection, schedule: Q01DX001 (ip), vehicle: other",423 % of control
CS(=O)(=O)OCCCCOS(C)(=O)=O,T/C,"endpoint: mean survival time, dose: 27.0 mg/kg/injection, schedule: Q01DX001 (ip), vehicle: carboxymethylcellulose (CMC)",95 % of control
same,T/C,"endpoint: mean survival time, dose: 41.0 mg/kg/injection, schedule: Q01DX001 (ip), vehicle: carboxymethylcellulose (CMC)",93 % of control
same,T/C,"endpoint: mean survival time, dose: 61.0 mg/kg/injection, schedule: Q01DX001 (ip), vehicle: carboxymethylcellulose (CMC)",94 % of control
S=c1nc[nH]c2nc[nH]c12,T/C,"endpoint: mean survival time, dose: 5.0 mg/kg/injection, schedule: Q01DX009 (ip), vehicle: alkali diluted with saline",122 % of control
same,T/C,"endpoint: mean survival time, dose: 6.0 mg/kg/injection, schedule: Q01DX015 (ip), vehicle: alkali diluted with saline",114 % of control
same,T/C,"endpoint: mean survival time, dose: 9.0 mg/kg/injection, schedule: Q01DX015 (ip), vehicle: alkali diluted with saline",120 % of control
same,T/C,"endpoint: mean survival time, dose: 14.0 mg/kg/injection, schedule: Q01DX015 (ip), vehicle: alkali diluted with saline",120 % of control
same,T/C,"endpoint: mean survival time, dose: 60.0 mg/kg/injection, schedule: Q01DX001 (ip), vehicle: alkali diluted with saline",111 % of control
same,T/C,"endpoint: mean survival time, dose: 80.0 mg/kg/injection, schedule: Q01DX009 (ip), vehicle: alkali diluted with saline",181 % of control
same,T/C,"endpoint: mean survival time, dose: 90.0 mg/kg/injection, schedule: Q01DX001 (ip), vehicle: alkali diluted with saline",117 % of control
same,T/C,"endpoint: mean survival time, dose: 135.0 mg/kg/injection, schedule: Q01DX001 (ip), vehicle: alkali diluted with saline",115 % of control
same,T/C,"endpoint: median survival time, dose: 100.0 mg/kg/injection, schedule: Q01DX001 (oral), vehicle: saline with Tween-80",115 % of control
same,T/C,"endpoint: median survival time, dose: 200.0 mg/kg/injection, schedule: Q01DX001 (oral), vehicle: saline with Tween-80",113 % of control
same,T/C,"endpoint: median survival time, dose: 400.0 mg/kg/injection, schedule: Q01DX001 (oral), vehicle: saline with Tween-80",118 % of control
CCC(=O)NC1=C(N2CC2)C(=O)C(NC(=O)CC)=C(N2CC2)C1=O,T/C,"endpoint: mean survival time, dose: 0.5 mg/kg/injection, schedule: Q01DX009 (ip), vehicle: saline",105 % of control
same,T/C,"endpoint: mean survival time, dose: 2.0 mg/kg/injection, schedule: Q01DX009 (ip), vehicle: saline",117 % of control
